Our source for the IC50 values is patent US12023333B2, “Phenyl-sulfamoyl.benzoyc acids as ERAP1 modulators” (GREY WOLF THERAPEUTICS LIMITED, priority 2019, dated 2024).

The target of the assay is T1, Purified ERAP1(37-941)-10His (ERAP1) (Homo sapiens, UniProt Q9NZ08).
T1 construct: Purified ERAP1(37-941)-10His (ERAP1); 10His (C)
T1 sequence (Q9NZ08 37-941): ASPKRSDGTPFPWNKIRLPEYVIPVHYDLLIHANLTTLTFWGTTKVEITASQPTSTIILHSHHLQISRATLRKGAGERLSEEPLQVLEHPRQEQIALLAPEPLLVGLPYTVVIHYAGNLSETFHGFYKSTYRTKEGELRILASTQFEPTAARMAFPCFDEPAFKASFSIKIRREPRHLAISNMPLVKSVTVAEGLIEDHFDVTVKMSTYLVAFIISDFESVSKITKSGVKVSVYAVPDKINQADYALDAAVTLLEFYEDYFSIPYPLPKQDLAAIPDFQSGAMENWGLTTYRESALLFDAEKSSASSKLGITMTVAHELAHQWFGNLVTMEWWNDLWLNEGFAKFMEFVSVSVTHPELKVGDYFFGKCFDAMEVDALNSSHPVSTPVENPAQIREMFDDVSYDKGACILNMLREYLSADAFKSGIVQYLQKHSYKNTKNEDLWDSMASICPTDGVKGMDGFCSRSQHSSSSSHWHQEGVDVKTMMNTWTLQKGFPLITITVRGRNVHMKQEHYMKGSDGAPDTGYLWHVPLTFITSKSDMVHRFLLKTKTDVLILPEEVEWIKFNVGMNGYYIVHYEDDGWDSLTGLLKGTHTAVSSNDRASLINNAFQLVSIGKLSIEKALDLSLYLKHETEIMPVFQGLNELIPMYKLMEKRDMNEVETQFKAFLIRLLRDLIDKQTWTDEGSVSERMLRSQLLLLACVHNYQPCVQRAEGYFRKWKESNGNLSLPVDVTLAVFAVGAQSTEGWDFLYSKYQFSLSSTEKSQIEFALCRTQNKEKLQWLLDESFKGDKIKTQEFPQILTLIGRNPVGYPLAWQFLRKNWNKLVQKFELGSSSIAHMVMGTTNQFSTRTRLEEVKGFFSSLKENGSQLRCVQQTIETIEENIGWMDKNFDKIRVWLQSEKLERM
Description: ERAP1 mediated hydrolysis of an amide substrate measured in a biochemical system (10-mer decapeptide substrate). To be noted: 10-mer substrate, 23° C. for 1 h, excitation 279 nm and emission 355 nm; read-out: IC50 vs Decapeptide WRVYEKC(Dnp)ALK-acid (where Dnp is Dinitrophenyl maleimide) (10-mer). Put shortly: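 ERAP1(37-941)-10His preincubated with compound in 25 mM Bis-tris propane, 0.05% HPMC, pH 7.75, then reacted 1 h at 23 °C with 10-mer WRVYEKC(Dnp)ALK (100 μM solution added in equal volume). Fluorescence read at ex 279/em 355 nm; IC50 from 4-parameter fit.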
Turning to `O=C(O)c1ccc(C2CC2)c(S(=O)(=O)Nc2cc(C(F)(F)F)c(Cl)cc2-n2cccc2)c1` [Example 156, 3-(N-(4-chloro-2-(pyrrol-1-yl)-5-(trifluoromethyl)phenyl)sulfamoyl)-4-cyclopropylbenzoic acid], the IC50 (commonly the concentration that gives 50% inhibition) is less than 0.5 µM.

Take `N#Cc1cc(NS(=O)(=O)c2cc(C(=O)O)ccc2C2CC2)c(-n2cccc2)cc1F` [Example 157, 3-(N-(5-cyano-4-fluoro-2-(pyrrol-1-yl)phenyl)sulfamoyl)-4-cyclopropylbenzoic acid]: the IC50 is less than 0.5 µM.

Consider `COc1ccc(C(=O)O)cc1S(=O)(=O)Nc1cc(C(F)(F)F)c(Cl)cc1-n1cccc1` [Example 158, 3-(N-(4-chloro-2-(pyrrol-1-yl)-5-(trifluoromethyl)phenyl)sulfamoyl)-4-methoxybenzoic acid], for which the 50% inhibitory concentration (IC50) was less than 0.5 µM. As for `N#Cc1ccc(-c2cscn2)c(NS(=O)(=O)c2cc(C(=O)O)ccc2C2CC2)c1` [Example 159, 3-(N-(5-cyano-2-(thiazol-4-yl)phenyl)sulfamoyl)-4-cyclopropylbenzoic acid], the IC50 is less than 0.5 µM. Turning to `Cc1oncc1-c1ccc(-c2ccc(F)s2)c(NS(=O)(=O)c2cc(C(=O)O)ccc2C2CC2)c1` [Example 160, 4-cyclopropyl-3-(N-(2-(5-fluorothiophen-2-yl)-5-(5-methylisoxazol-4-yl)phenyl)sulfamoyl)benzoic acid], the IC50 was less than 0.5 µM. As for `N#Cc1cc(NS(=O)(=O)c2cc(C(=O)O)ccc2C2CC2)c(-n2cccc2)cc1Cl` [Example 161, 3-(N-(4-chloro-5-cyano-2-(pyrrol-1-yl)phenyl)sulfamoyl)-4-cyclopropylbenzoic acid], the IC50 was less than 0.5 µM. `COc1ccc(C(=O)O)cc1S(=O)(=O)Nc1cc(C(F)(F)F)c(F)cc1-n1cccc1` [Example 162, 3-(N-(4-fluoro-2-(pyrrol-1-yl)-5-(trifluoromethyl)phenyl)sulfamoyl)-4-methoxybenzoic acid]: the IC50 was less than 0.5 µM. For `N#Cc1ccc(-c2nccs2)c(NS(=O)(=O)c2cc(C(=O)O)ccc2C2CC2)c1` [Example 163, 3-(N-(5-cyano-2-(thiazol-2-yl)phenyl)sulfamoyl)-4-cyclopropylbenzoic acid] the value was less than 0.5 µM; for `Cc1oncc1-c1ccc(-c2ccc(Cl)s2)c(NS(=O)(=O)c2cc(C(=O)O)ccc2C2CC2)c1` [Example 164, 3-(N-(2-(5-chlorothiophen-2-yl)-5-(5-methylisoxazol-4-yl)phenyl)sulfamoyl)-4-cyclopropylbenzoic acid], less than 0.5 µM.

With `N#Cc1ccc(-c2cccnn2)c(NS(=O)(=O)c2cc(C(=O)O)ccc2C2CC2)c1` [Example 165, 3-(N-(5-cyano-2-(pyridazin-3-yl)phenyl)sulfamoyl)-4-cyclopropylbenzoic acid], the IC50 is less than 0.5 µM. Take `N#Cc1cc(NS(=O)(=O)c2cc(C(=O)O)ccc2C2CC2)c(-c2ccc(Cl)s2)cc1F` [Example 166, 3-(N-(2-(5-chlorothiophen-2-yl)-5-cyano-4-fluorophenyl)sulfamoyl)-4-cyclopropylbenzoic acid]: the IC50 is less than 0.5 µM. For `Cc1oncc1-c1ccc(-c2cccnc2)c(NS(=O)(=O)c2cc(C(=O)O)ccc2C2CC2)c1` [Example 167, 4-cyclopropyl-3-(N-(5-(5-methylisoxazol-4-yl)-2-(pyridin-3-yl)phenyl)sulfamoyl)benzoic acid], the IC50 is less than 0.5 µM. As for `N#Cc1ccc(-c2ccccn2)c(NS(=O)(=O)c2cc(C(=O)O)ccc2C2CCC2)c1` [Example 168, 3-(N-(5-cyano-2-(pyridin-2-yl)phenyl)sulfamoyl)-4-cyclobutylbenzoic acid], the IC50 is less than 0.5 µM. In the case of `N#Cc1ccc(-c2ncccn2)c(NS(=O)(=O)c2cc(C(=O)O)ccc2C2CC2)c1` [Example 169, 3-(N-(5-cyano-2-(pyrimidin-2-yl)phenyl)sulfamoyl)-4-cyclopropylbenzoic acid] it was less than 0.5 µM. Regarding `N#Cc1ccc(-c2ccsn2)c(NS(=O)(=O)c2cc(C(=O)O)ccc2C2CC2)c1` [Example 170, 3-(N-(5-cyano-2-(isothiazol-3-yl)phenyl)sulfamoyl)-4-cyclopropylbenzoic acid], the IC50 is less than 0.5 µM. Consider `CS(=O)(=O)c1cc(NS(=O)(=O)c2cc(C(=O)O)ccc2C2CC2)c(-c2ccccn2)cc1Cl` [Example 171, 3-(N-(4-chloro-5-(methylsulfonyl)-2-(pyridin-2-yl)phenyl)sulfamoyl)-4-cyclopropylbenzoic acid], for which the IC50 is less than 0.5 µM.

Take `CS(=O)(=O)c1cc(NS(=O)(=O)c2cc(C(=O)O)ccc2C2CC2)c(-c2ccccn2)cc1F` [Example 172, 4-cyclopropyl-3-(N-(4-fluoro-5-(methylsulfonyl)-2-(pyridin-2-yl)phenyl)sulfamoyl)benzoic acid]: the IC50 was less than 0.5 µM. In the case of `CC(C)(C)c1ccc(C(=O)O)cc1S(=O)(=O)Nc1cc(C#N)ccc1-c1ccccn1` [Example 173, 4-(tert-butyl)-3-(N-(5-cyano-2-(pyridin-2-yl)phenyl)sulfamoyl) benzoic acid] it was less than 5 µM; in that of `N#Cc1ccc(-c2ccccn2)c(NS(=O)(=O)c2cc(C(=O)O)ccc2C#N)c1` [Example 175, 4-cyano-3-(N-(5-cyano-2-(pyridin-2-yl)phenyl)sulfamoyl)benzoic acid], more than 5 µM; in that of `Cc1cc(C#N)cc(NS(=O)(=O)c2cc(C(=O)O)ccc2C2CC2)c1-c1ccccn1` [Example 176, 3-(N-(5-cyano-3-methyl-2-(pyridin-2-yl)phenyl)sulfamoyl)-4-cyclopropylbenzoic acid], less than 0.5 µM. On to `Cc1cc(C#N)cc(NS(=O)(=O)c2cc(C(=O)O)ccc2C2CC2)c1-c1ccc(Cl)s1` [Example 177, 3-(N-(2-(5-chlorothiophen-2-yl)-5-cyano-3-methylphenyl)sulfamoyl)-4-cyclopropylbenzoic acid], for which the IC50 was less than 0.5 µM. `N#Cc1cc(NS(=O)(=O)c2cc(C(=O)O)ccc2C2CC2)c(-c2cscn2)cc1Cl` [Example 178, 3-(N-(4-chloro-5-cyano-2-(thiazol-4-yl)phenyl)sulfamoyl)-4-cyclopropylbenzoic acid]: the IC50 is less than 0.5 µM. In the case of `N#Cc1cc(NS(=O)(=O)c2cc(C(=O)O)ccc2C2CC2)c(-c2ncccn2)cc1Cl` [Example 179, 3-(N-(4-chloro-5-cyano-2-(pyrimidin-2-yl)phenyl)sulfamoyl)-4-cyclopropylbenzoic acid] it was less than 0.5 µM.

As to `N#Cc1cc(NS(=O)(=O)c2cc(C(=O)O)ccc2C2CC2)c(-c2ccsn2)cc1Cl` [Example 180, 3-(N-(4-chloro-5-cyano-2-(isothiazol-3-yl)phenyl)sulfamoyl)-4-cyclopropylbenzoic acid], the IC50 is less than 0.5 µM. For the compound `N#Cc1cc(NS(=O)(=O)c2cc(C(=O)O)ccc2C2CC2)c(-c2ccsn2)cc1F` [Example 181, 3-(N-(5-cyano-4-fluoro-2-(isothiazol-3-yl)phenyl)sulfamoyl)-4-cyclopropylbenzoic acid], the IC50 is less than 0.5 µM. Regarding `N#Cc1cc(NS(=O)(=O)c2cc(C(=O)O)ccc2C2CC2)c(-c2ncccn2)cc1F` [Example 182, 3-(N-(5-cyano-4-fluoro-2-(pyrimidin-2-yl)phenyl)sulfamoyl)-4-cyclopropylbenzoic acid], the 50% inhibitory concentration (IC50) was less than 0.5 µM. For the compound `N#Cc1cc(NS(=O)(=O)c2cc(C(=O)O)ccc2C2CC2)c(-c2nccs2)cc1F` [Example 183, 3-(N-(5-cyano-4-fluoro-2-(thiazol-2-yl)phenyl)sulfamoyl)-4-cyclopropylbenzoic acid], the IC50 was less than 0.5 µM. For `O=C(O)c1ccc(C2CC2)c(S(=O)(=O)Nc2cc(-c3ccns3)c(F)cc2-c2ccccn2)c1` [Example 184, 4-cyclopropyl-3-(N-(4-fluoro-5-(isothiazol-5-yl)-2-(pyridin-2-yl)phenyl)sulfamoyl)benzoic acid] the value was less than 0.5 µM; for `Cn1nccc1-c1cc(NS(=O)(=O)c2cc(C(=O)O)ccc2C2CC2)c(-c2ccccn2)cc1F` [Example 185, 4-cyclopropyl-3-(N-(4-fluoro-5-(1-methylpyrazol-5-yl)-2-(pyridin-2-yl)phenyl)sulfamoyl)benzoic acid], less than 0.5 µM; for `Cn1ncnc1-c1cc(NS(=O)(=O)c2cc(C(=O)O)ccc2C2CC2)c(-c2ccccn2)cc1F` [Example 186, 4-cyclopropyl-3-(N-(4-fluoro-5-(1-methyl-1,2,4-triazol-5-yl)-2-(pyridin-2-yl)phenyl)sulfamoyl)benzoic acid], less than 0.5 µM. Consider `O=C(O)c1ccc(C2CC2)c(S(=O)(=O)Nc2cc(-n3cnnn3)c(Cl)cc2-c2ccccn2)c1` [Example 187, 3-(N-(4-chloro-2-(pyridin-2-yl)-5-(tetrazol-1-yl)phenyl)sulfamoyl)-4-cyclopropylbenzoic acid], for which the IC50 is less than 0.5 µM. For the compound `Cn1nccc1-c1cc(NS(=O)(=O)c2cc(C(=O)O)ccc2C2CC2)c(-c2ccccn2)cc1Cl` [Example 188, 3-(N-(4-chloro-5-(1-methylpyrazol-5-yl)-2-(pyridin-2-yl)phenyl)sulfamoyl)-4-cyclopropylbenzoic acid], the IC50 is less than 0.5 µM. Consider `Cn1ncnc1-c1cc(NS(=O)(=O)c2cc(C(=O)O)ccc2C2CC2)c(-c2ccccn2)cc1Cl` [Example 189, 3-(N-(4-chloro-5-(1-methyl-1,2,4-triazol-5-yl)-2-(pyridin-2-yl)phenyl)sulfamoyl)-4-cyclopropylbenzoic acid], for which the IC50 is less than 0.5 µM. Take `O=C(O)c1ccc(C2CC2)c(S(=O)(=O)Nc2cc(-n3cnnn3)c(F)cc2-c2ccccn2)c1` [Example 190, 4-cyclopropyl-3-(N-(4-fluoro-2-(pyridin-2-yl)-5-(tetrazol-1-yl)phenyl)sulfamoyl)benzoic acid]: the IC50 was less than 0.5 µM.

As for `O=C(O)c1ccc(C2CC2)c(S(=O)(=O)Nc2cc(-c3ccns3)c(Cl)cc2-c2ccccn2)c1` [Example 191, 3-(N-(4-chloro-5-(isothiazol-5-yl)-2-(pyridin-2-yl)phenyl)sulfamoyl)-4-cyclopropylbenzoic acid], the IC50 was less than 0.5 µM.
